Experiments:
Mus musculus [1] = test: Antiobesity activity in diet-induced obesity C57BL/6 mouse model assessed as reduction of body weight at 10 mg/kg, po qd for 14 days; type: functional; set-up: scale not given: the % may be the effect or the level left
Cannabinoid receptor 1 = Cannabinoid receptor 1 (Rattus norvegicus, UniProt P20272)
Description: Displacement of [3H]CP-55940 from CB1 receptor in Sprague-Dawley rat cerebellum after 1 hr by liquid scintillation counting

[2] = Cmax in Sprague-Dawley rat at 5 mg/kg, po; type: ADME, organism-based; set-up: dose 5 mg/kg, route oral; details: in vivo
Cytochrome P450 3A4 = Cytochrome P450 3A4 (Homo sapiens, UniProt P08684); test: Inhibition of CYP3A4 in human liver microsomes after 30 mins; type: ADME, Microsome
[3] = target: Voltage-gated inwardly rectifying potassium channel KCNH2 (Homo sapiens, UniProt Q12809); test: Inhibition of human ERG at holding potential of -80 mV to +40 mV
[4] = Clearance in Sprague-Dawley rat at 1 mg/kg, iv; type: ADME, organism-based; set-up: dose 1 mg/kg, route intravenous; details: in vivo
[5] = Half life in Sprague-Dawley rat at 5 mg/kg, po; type: ADME, organism-based; set-up: dose 5 mg/kg, route oral; details: in vivo
[6] = Mutagenic activity in Salmonella Typhimurium TA100 assessed as number of spontaneous and drug-induced revertants after 48 hrs by Ames test; type: toxicity; details: salmonella enterica subsp. enterica serovar typhimurium
[7] = Cmax in Sprague-Dawley rat at 1 mg/kg, iv; type: ADME, organism-based; set-up: dose 1 mg/kg, route intravenous; details: in vivo
[8] = Oral bioavailability in Sprague-Dawley rat at 5 mg/kg, po; type: ADME, organism-based; details: in vivo
Rattus norvegicus [9] = test: AUC (0 to infinity) in Sprague-Dawley rat at 5 mg/kg, po; type: ADME, organism-based, Plasma; set-up: time infinity, dose 5 mg/kg, route oral; details: in vivo
Cytochrome P450 2D6 = Cytochrome P450 2D6 (Homo sapiens, UniProt P10635); test: Inhibition of CYP2D6 in human liver microsomes after 30 mins; type: ADME, Microsome
[10] = Tmax in Sprague-Dawley rat at 5 mg/kg, po; type: ADME, organism-based; set-up: dose 5 mg/kg, route oral; details: in vivo
Nucleic Acid = test: Induction of DNA damage up to 50 uM after 2 hrs by comet assay; type: nucleic-acid assay
Rattus norvegicus [11] = test: Antiobesity activity in diet-induced obesity Sprague-Dawley rat model assessed as reduction of body weight administered at 10 mg/kg, po qd for 13 days; type: functional; set-up: scale not given: the % may be the effect or the level left
Cytochrome P450 1A2 = target: T1, Cytochrome P450 1A2 (Homo sapiens, UniProt P05177); test: Inhibition of CYP1A2 in human liver microsomes after 30 mins; type: ADME, Microsome
T1 sequence (P05177 whole entry): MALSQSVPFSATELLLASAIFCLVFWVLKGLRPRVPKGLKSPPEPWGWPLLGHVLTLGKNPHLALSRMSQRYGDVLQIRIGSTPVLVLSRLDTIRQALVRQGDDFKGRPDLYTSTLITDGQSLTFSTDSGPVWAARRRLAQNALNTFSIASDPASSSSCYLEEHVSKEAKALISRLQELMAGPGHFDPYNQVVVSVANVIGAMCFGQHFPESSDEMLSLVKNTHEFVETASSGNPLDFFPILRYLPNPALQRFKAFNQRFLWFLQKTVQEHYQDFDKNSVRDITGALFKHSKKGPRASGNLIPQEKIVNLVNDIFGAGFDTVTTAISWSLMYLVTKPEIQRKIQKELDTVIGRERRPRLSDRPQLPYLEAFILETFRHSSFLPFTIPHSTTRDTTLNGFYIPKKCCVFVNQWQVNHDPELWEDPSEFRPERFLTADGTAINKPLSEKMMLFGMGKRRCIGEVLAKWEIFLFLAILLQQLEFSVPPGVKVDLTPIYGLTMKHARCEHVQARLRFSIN

Rattus norvegicus [12] = test: Clast in Sprague-Dawley rat at 1 mg/kg, iv; type: ADME, organism-based; set-up: dose 1 mg/kg, route intravenous; details: in vivo
Rattus norvegicus [13] = test: AUC (0 to infinity) in Sprague-Dawley rat at 1 mg/kg, iv; type: ADME, organism-based, Plasma; set-up: time infinity, dose 1 mg/kg, route intravenous; details: in vivo
[14] = Half life in Sprague-Dawley rat at 1 mg/kg, iv; type: ADME, organism-based; set-up: dose 1 mg/kg, route intravenous; details: in vivo
Cannabinoid receptor 2 = Cannabinoid receptor 2 (Homo sapiens, UniProt P34972); test: Displacement of [3H]WIN-55212-2 from human CB2 receptor expressed in CHO-K1 cells after 1 hr by liquid scintillation counting; type: cell-based
[15] = Selectivity ratio of IC50 for human CB2 receptor to IC50 for CB1 receptor in Sprague-Dawley rat cerebellum; type: tissue-based
Cytochrome P450 2C9 = Cytochrome P450 2C9 (Homo sapiens, UniProt P11712); test: Inhibition of CYP2C9 in human liver microsomes after 30 mins; type: ADME, Microsome
[16] = Ratio of drug level in brain to plasma in Sprague-Dawley rat; type: ADME
Rattus norvegicus [17] = test: Clast in Sprague-Dawley rat at 5 mg/kg, po; type: ADME, organism-based; set-up: dose 5 mg/kg, route oral; details: in vivo
Mus musculus [18] = test: Antiobesity activity in diet-induced obesity C57BL/6 mouse model assessed as reduction of body weight at 3 mg/kg, po qd for 13 days; type: functional; set-up: scale not given: the % may be the effect or the level left
Vero = test: Cytotoxicity against african green monkey Vero cells; type: cell-based; details: Chlorocebus sabaeus
HCT-116 = test: Cytotoxicity against human HCT116 cells; type: cell-based
HEK293 = test: Cytotoxicity against human HEK293 cells; type: cell-based
[19] = Cytotoxicity against human HuH7 cells; type: cell-based; details: Huh-7

Cytochrome P450 3A4, sequence (P08684 whole entry): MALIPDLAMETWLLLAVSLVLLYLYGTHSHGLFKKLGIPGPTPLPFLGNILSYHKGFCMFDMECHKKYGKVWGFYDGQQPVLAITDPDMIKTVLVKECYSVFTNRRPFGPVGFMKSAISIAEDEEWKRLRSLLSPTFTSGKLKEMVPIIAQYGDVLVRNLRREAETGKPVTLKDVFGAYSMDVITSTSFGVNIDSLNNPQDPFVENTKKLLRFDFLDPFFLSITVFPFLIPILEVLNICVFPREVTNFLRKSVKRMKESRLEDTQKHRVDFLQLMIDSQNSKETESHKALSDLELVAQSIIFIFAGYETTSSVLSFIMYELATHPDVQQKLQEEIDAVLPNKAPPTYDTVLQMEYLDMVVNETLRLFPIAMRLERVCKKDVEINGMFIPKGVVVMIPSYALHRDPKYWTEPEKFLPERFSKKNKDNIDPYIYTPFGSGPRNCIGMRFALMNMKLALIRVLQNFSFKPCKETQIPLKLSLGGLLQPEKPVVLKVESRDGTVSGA
Cannabinoid receptor 2, sequence (P34972 whole entry): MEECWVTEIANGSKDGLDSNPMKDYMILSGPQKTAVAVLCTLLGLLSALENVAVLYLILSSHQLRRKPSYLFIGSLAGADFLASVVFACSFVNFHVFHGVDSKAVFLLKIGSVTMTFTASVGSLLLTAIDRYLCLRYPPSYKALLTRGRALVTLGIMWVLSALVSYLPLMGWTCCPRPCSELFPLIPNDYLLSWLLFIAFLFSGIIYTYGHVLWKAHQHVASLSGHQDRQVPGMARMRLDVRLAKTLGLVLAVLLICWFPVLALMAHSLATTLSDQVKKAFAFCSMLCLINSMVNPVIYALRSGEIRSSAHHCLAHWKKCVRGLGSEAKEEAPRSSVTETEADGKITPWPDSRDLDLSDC
Cannabinoid receptor 1, sequence (P20272 whole entry): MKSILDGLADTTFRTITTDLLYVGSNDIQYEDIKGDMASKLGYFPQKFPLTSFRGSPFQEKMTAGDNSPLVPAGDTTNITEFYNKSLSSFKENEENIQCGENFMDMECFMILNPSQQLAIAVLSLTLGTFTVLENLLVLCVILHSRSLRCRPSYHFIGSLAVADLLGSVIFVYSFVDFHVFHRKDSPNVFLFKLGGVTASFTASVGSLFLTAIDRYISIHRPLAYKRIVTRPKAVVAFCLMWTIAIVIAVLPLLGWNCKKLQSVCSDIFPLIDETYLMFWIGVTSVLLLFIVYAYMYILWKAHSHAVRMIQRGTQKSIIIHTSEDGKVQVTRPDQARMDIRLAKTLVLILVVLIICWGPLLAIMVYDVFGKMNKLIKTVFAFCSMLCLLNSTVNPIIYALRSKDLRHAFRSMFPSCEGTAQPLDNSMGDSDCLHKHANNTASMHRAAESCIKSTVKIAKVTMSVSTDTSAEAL
Voltage-gated inwardly rectifying potassium channel KCNH2, sequence (Q12809 whole entry): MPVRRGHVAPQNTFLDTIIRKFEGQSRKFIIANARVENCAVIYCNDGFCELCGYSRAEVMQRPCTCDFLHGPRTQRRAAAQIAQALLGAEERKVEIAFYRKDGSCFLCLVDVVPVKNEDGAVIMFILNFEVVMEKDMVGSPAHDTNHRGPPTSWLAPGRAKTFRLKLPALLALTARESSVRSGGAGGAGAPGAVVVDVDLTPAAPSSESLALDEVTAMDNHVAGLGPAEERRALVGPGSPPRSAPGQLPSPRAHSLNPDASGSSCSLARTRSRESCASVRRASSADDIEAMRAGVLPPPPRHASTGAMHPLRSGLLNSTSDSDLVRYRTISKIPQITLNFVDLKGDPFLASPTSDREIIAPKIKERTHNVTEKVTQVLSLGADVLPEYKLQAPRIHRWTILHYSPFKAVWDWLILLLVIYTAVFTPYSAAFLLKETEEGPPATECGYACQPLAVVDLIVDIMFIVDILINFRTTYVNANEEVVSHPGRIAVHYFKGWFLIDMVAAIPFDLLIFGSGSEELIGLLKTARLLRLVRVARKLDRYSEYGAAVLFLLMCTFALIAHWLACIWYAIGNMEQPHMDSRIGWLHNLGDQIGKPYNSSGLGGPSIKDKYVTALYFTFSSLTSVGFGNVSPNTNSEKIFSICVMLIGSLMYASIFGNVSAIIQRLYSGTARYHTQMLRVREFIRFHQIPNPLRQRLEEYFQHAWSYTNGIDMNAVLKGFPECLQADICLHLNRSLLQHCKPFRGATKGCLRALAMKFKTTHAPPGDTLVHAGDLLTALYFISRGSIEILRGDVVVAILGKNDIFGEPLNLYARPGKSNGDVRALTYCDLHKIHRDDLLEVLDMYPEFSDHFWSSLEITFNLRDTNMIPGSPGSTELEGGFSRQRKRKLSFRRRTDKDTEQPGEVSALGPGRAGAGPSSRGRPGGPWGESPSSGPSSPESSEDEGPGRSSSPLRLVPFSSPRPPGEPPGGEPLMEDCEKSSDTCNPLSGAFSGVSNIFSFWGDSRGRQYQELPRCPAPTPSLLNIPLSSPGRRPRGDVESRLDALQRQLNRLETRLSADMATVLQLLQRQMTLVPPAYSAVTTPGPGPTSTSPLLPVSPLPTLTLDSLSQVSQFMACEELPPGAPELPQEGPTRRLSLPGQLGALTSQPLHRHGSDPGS
Cytochrome P450 2D6, sequence (P10635 whole entry): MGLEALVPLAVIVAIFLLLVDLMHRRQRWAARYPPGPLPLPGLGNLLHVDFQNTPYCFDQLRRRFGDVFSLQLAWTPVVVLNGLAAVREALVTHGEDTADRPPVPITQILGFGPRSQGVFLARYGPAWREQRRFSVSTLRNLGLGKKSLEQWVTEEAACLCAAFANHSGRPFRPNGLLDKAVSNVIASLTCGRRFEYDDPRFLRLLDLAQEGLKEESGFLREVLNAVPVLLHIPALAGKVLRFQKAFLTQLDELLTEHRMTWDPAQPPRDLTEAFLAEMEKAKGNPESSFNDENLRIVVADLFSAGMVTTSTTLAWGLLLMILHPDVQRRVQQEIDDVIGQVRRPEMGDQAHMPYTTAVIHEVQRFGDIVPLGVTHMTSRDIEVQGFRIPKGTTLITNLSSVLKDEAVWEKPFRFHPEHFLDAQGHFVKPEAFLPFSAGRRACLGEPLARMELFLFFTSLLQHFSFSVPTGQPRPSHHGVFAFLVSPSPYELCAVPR
Cytochrome P450 2C9, sequence (P11712 whole entry): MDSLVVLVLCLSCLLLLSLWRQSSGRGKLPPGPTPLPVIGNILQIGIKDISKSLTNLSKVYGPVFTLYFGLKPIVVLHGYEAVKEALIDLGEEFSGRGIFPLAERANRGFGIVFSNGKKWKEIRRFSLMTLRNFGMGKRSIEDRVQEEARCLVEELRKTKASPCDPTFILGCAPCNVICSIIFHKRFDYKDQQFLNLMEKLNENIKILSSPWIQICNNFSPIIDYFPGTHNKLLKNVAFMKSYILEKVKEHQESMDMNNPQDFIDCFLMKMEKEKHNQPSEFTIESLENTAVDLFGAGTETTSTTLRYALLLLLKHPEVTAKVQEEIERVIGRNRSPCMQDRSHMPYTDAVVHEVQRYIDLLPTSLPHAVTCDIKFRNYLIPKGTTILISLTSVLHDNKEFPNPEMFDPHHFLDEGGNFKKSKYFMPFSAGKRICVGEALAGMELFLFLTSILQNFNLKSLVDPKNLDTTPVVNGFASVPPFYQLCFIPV

| SMILES | Activity (Mus musculus [1]) [%] | IC50 (Cannabinoid receptor 1) [nM] | IC50 (Cannabinoid receptor 2) [nM] | Ratio IC50 [15] | also measured |
| --- | --- | --- | --- | --- | --- |
| CC1(c2nnc(-c3nn(-c4ccc(Cl)cc4Cl)c(-c4ccc(Br)cc4)c3Cn3cncn3)s2)CC1 | 23.68 | 2.91 |  |  |  |
| CC1(c2nnc(-c3nn(-c4ccc(Cl)cc4Cl)c(-c4ccc(Cl)cc4)c3Cn3cncn3)s2)CC1 | 23.68 | 2.4 |  |  |  |
| Cc1c(C(=O)NN2CCCCC2)nn(-c2ccc(Cl)cc2Cl)c1-c1ccc(Cl)cc1 [RIMONABANT] | 18.02 |  |  |  | Cmax [2]: 290 ng/mL; IC50 (Cytochrome P450 3A4): > 20 µM; IC50 [3]: 4.8 µM; clearance [4]: 82.4 mL/min/kg; half-life [5]: 494 min; Activity [6]: Non-toxic; Cmax [7]: 300 ng/mL; bioavailability [8]: 53.1%; AUC (Rattus norvegicus [9]): 33.4 min/µg/mL; IC50 (Cytochrome P450 2D6): > 20 µM; Tmax [10]: 30 min; Activity (Nucleic Acid): Non-toxic; Activity (Rattus norvegicus [11]): 10.61%; IC50 (Cytochrome P450 1A2): > 20 µM; Clast (Rattus norvegicus [12]): 0.01 µg/mL; AUC (Rattus norvegicus [13]): 12.59 min/µg/mL; half-life [14]: 185 min |
| Clc1ccc(-c2c(Cn3cncn3)c(-c3nnc(C4(c5ccc(Cl)cc5)CC4)s3)nn2-c2ccccc2Cl)cc1 | 23.68 | 0.966 | 265 | 274 |  |
| C[C@H](NC(=O)C(C)(C)Oc1ccc(C(F)(F)F)cn1)[C@@H](Cc1ccc(Cl)cc1)c1cccc(C#N)c1 [TARANABANT] | 29.55 |  |  |  | Cmax [2]: 360 ng/mL; IC50 [3]: 14.2 µM; clearance [4]: 40.8 mL/min/kg; half-life [5]: 888 min; Activity [6]: Non-toxic; Cmax [7]: 470 ng/mL; IC50 (Cytochrome P450 2C9): 930 nM; bioavailability [8]: 67.6%; AUC (Rattus norvegicus [9]): 83.64 min/µg/mL; IC50 (Cytochrome P450 2D6): 0.59 µM; Tmax [10]: 30 min; Activity (Nucleic Acid): Non-toxic; Activity (Rattus norvegicus [11]): 17.16%; BPR [16]: 52%; Clast (Rattus norvegicus [17]): 0.02 µg/mL; IC50 (Cytochrome P450 1A2): > 20 µM; Clast (Rattus norvegicus [12]): 0.01 µg/mL; AUC (Rattus norvegicus [13]): 24.75 min/µg/mL; half-life [14]: 166 min |
| Clc1ccc(C2(c3nnc(-c4nn(-c5ccc(Cl)cc5Cl)c(-c5ccc(Br)cc5)c4Cn4cncn4)s3)CC2)cc1 | 23.68 | 0.877 |  |  |  |
| Clc1ccc(-c2c(Cn3cncn3)c(-c3nnc(C4(c5ccc(Cl)cc5)CC4)s3)nn2-c2ccc(Cl)cc2Cl)cc1 | 23.68 |  |  |  |  |
| FC(F)(F)C1(c2nnc(-c3nn(-c4ccccc4Cl)c(-c4ccc(Cl)cc4)c3Cn3cncn3)s2)CC1 | 23.68 | 1.66 |  |  |  |
| FC(F)(F)C1(c2nnc(-c3nn(-c4ccccc4Cl)c(-c4ccc(Br)cc4)c3Cn3cncn3)s2)CC1 |  | 0.992 | 124 | 125 |  |
| CC(C)(C)c1nnc(-c2nn(-c3ccc(Cl)cc3Cl)c(-c3ccc(Br)cc3)c2Cn2cncn2)s1 | 23.68 | 1.54 | 430 |  | IC50 (Cytochrome P450 3A4): > 20 µM; IC50 (Cytochrome P450 2C9): 2600 nM; IC50 (Cytochrome P450 2D6): > 20 µM; Activity (Nucleic Acid): Non-toxic; IC50 (Cytochrome P450 1A2): 2.7 µM |
| CC(C)(C)c1nnc(-c2nn(-c3ccc(Cl)cc3Cl)c(-c3ccc(Cl)cc3)c2Cn2cncn2)s1 | 23.68 | 1.73 | 1140 | 659 |  |
| FC(F)(F)C1(c2nnc(-c3nn(-c4ccc(Cl)cc4Cl)c(-c4ccc(Br)cc4)c3Cn3cncn3)s2)CC1 | 23.68 | 0.991 |  |  |  |
| FC(F)(F)C1(c2nnc(-c3nn(-c4ccccc4Cl)c(-c4ccc(Cl)cc4)c3Cn3cncn3)s2)CCC1 | 23.68 | 1.01 |  |  |  |
| Clc1ccc(-c2c(Cn3cncn3)c(-c3nnc(C4(c5ccccc5)CC4)s3)nn2-c2ccc(Cl)cc2Cl)cc1 | 23.68 |  |  |  |  |
| FC(F)(F)C1(c2nnc(-c3nn(-c4ccc(Cl)cc4Cl)c(-c4ccc(Cl)cc4)c3Cn3cncn3)s2)CC1 | 23.68 |  | 3630 | 1590 |  |
| FC(F)(F)C1(c2nnc(-c3nn(-c4ccc(Cl)cc4Cl)c(-c4ccc(Cl)cc4)c3Cn3cncn3)s2)CCC1 | 23.68 |  | 505 | 175 | Activity (Mus musculus [18]): 34.45%; IC50 (Cytochrome P450 3A4): > 20 µM; IC50 [3]: > 10 µM; Activity [6]: Non-toxic; IC50 (Cytochrome P450 2C9): > 20000 nM; EC50 (Vero): > 100 µM; IC50 (Cytochrome P450 2D6): > 20 µM; EC50 (HCT-116): > 100 µM; Activity (Nucleic Acid): Non-toxic; Activity (Rattus norvegicus [11]): 14.43%; IC50 (Cytochrome P450 1A2): > 20 µM; EC50 (HEK293): > 100 µM; EC50 [19]: > 100 µM |
| Clc1ccc(-n2nc(-c3nnc(C4(c5ccccc5)CC4)s3)c(Cn3cncn3)c2-c2ccc(Br)cc2)c(Cl)c1 | 23.68 | 2.23 |  |  |  |
| FC(F)(F)c1ccccc1-n1nc(-c2nnc(C3(C(F)(F)F)CCC3)s2)c(Cn2cncn2)c1-c1ccc(Cl)cc1 | 23.68 | 6.48 | 76.8 | 11.8 |  |
| Cc1ccc(C2(c3nnc(-c4nn(-c5ccc(Cl)cc5Cl)c(-c5ccc(Br)cc5)c4Cn4cncn4)s3)CC2)cc1 | 23.68 | 2.74 |  |  |  |
| Cc1ccc(C2(c3nnc(-c4nn(-c5ccc(Cl)cc5Cl)c(-c5ccc(Cl)cc5)c4Cn4cncn4)s3)CC2)cc1 | 23.68 |  |  |  |  |
| CC(C)(C)c1nnc(-c2nn(-c3ccccc3Cl)c(-c3ccc(Cl)cc3)c2Cn2cncn2)s1 | 23.68 |  |  |  |  |
| FC(F)(F)c1ccccc1-n1nc(-c2nnc(C3(C(F)(F)F)CCC3)s2)c(Cn2cncn2)c1-c1ccc(Br)cc1 |  | 4.38 | 27.6 | 6.3 |  |
| FC(F)(F)C1(c2nnc(-c3nn(-c4ccc(Cl)cc4Cl)c(-c4ccc(Br)cc4)c3Cn3cncn3)s2)CCC1 | 23.68 | 3.27 |  |  |  |
| FC(F)(F)C1(c2nnc(-c3nn(-c4ccccc4Cl)c(-c4ccc(Br)cc4)c3Cn3cncn3)s2)CCC1 |  | 0.848 | 73.6 | 87 |  |

Source: ChEMBL document CHEMBL1221281, “Discovery of 2-(4-((1H-1,2,4-triazol-1-yl)methyl)-5-(4-bromophenyl)-1-(2-chlorophenyl)-1H-pyrazol-3-yl)-5-tert-butyl-1,3,4-thiadiazole (GCC2680) as a potent, selective and orally efficacious cannabinoid-1 receptor antagonist” (Bioorg Med Chem, 2010)
